From PMC7283271, “ADP binding by the Culex quinquefasciatus mosquito D7 salivary protein enhances blood feeding on mammals” (Nature Communications, 2020)

Tests used:
Format in all cases: binding
CxD7L2 = biological target: T1, CxD7L2 (Culex quinquefasciatus, UniProt B0X6Z1); assay: ITC
T1 construct: gene D7L2; full-length mature protein, C-terminal 6x-His, HEK293

CxD7L1 [1] = biological target: T2, CxD7L1 (Culex quinquefasciatus, UniProt A0A1S4K3K8); assay: ITC; set-up: gene D7L1; mature protein, C-terminal 6x-His, HEK293
Target sequence in this assay (A0A1S4K3K8 17-311 limits assumed): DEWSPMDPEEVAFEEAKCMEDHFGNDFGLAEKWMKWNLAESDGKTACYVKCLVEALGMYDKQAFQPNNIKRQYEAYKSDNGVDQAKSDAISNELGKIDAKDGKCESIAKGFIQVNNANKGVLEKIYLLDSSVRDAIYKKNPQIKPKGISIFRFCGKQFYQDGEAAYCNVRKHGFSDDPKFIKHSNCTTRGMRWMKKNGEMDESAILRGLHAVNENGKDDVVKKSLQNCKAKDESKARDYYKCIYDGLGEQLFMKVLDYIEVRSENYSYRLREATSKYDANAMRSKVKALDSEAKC

CxD7L1 [2] = biological target: T2, CxD7L1; assay: crystal structure ([…] Å) and ITC; set-up: gene D7L1; mature protein
Target sequence in this assay (A0A1S4K3K8 17-311): as the sequence (A0A1S4K3K8 17-311 limits assumed) above

T1 sequence (B0X6Z1 21-313 limits assumed): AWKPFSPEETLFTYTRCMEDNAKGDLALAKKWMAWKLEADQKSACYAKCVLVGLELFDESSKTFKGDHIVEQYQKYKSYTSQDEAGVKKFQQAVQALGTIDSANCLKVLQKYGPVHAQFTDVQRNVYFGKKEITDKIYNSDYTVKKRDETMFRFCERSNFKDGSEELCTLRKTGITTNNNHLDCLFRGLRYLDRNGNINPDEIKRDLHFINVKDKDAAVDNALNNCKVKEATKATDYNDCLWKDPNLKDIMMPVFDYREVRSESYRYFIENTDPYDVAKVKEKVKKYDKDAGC

`CNC[C@H](O)c1ccc(O)c(O)c1` [Epinephrine] showed a Kd (CxD7L2) of 226 nM.
Work on `Nc1ncnc2c1ncn2[C@@H]1O[C@H](CO)[C@@H](O)[C@H]1O` [Adenosine] yielded a Kd (CxD7L1 [1]) of 313 nM.
Work on `Nc1ncnc2c1ncn2[C@@H]1O[C@H](COP(=O)(O)OP(=O)(O)O)[C@@H](O)[C@H]1O` [ADP] yielded a Kd (CxD7L1 [2]) of 32.7 nM.
